Calls of active or inactive are those of the source. The rule behind the calls is not given here.

The Ki is a measure of affinity in units of concentration, obtained from inhibition or displacement. A word on the AC50: it is the concentration giving half of the maximal activity seen.

For test [1], the target named is T1, Retinoic acid receptor alpha (Homo sapiens, UniProt P10276).
T1 sequence (P10276 whole entry): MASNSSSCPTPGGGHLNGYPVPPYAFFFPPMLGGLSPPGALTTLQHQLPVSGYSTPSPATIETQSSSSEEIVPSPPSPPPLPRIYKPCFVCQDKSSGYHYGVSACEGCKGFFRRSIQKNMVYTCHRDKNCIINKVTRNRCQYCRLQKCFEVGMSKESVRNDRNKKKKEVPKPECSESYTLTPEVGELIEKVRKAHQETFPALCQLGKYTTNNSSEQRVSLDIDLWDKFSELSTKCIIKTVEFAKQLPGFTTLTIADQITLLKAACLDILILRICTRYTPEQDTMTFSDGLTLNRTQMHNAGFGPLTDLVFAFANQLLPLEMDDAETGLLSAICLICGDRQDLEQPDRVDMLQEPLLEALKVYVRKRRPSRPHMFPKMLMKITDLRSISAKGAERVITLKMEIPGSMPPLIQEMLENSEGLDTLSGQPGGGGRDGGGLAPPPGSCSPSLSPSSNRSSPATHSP
Kind of test: Binding affinity towards Retinoic acid receptor alpha.

Test [2] concerns F9. Kind of test: Compound was tested for its ability to induce differentiation of F9 cells as estimated by plasminogen activator secretion (PA); NA = Not active. The test is classed as functional, cell-based, Mus musculus.
Test [3] has as its target T2, Retinoic acid receptor RXR-alpha (Homo sapiens) (UniProt P19793).
T2 sequence (whole entry): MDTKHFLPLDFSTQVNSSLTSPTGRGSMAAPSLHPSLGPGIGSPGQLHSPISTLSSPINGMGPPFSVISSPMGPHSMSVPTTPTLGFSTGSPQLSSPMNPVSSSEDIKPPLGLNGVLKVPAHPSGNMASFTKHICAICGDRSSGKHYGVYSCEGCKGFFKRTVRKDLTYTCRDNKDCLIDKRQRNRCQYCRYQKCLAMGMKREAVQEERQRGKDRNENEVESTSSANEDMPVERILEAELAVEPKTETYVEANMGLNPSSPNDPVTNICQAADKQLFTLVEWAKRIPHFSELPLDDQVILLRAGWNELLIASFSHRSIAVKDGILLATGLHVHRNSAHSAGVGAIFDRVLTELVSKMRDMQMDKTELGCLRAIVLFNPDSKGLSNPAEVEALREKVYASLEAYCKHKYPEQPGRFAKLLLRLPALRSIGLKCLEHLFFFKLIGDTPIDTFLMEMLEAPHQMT
As to the kind of experiment: Evaluated for RXR-alpha functional transcriptional activation; NA means not active at 1 uM.

Test [4] addresses T3, Retinoic acid receptor beta (Homo sapiens, UniProt P10826).
T3 sequence (P10826 whole entry): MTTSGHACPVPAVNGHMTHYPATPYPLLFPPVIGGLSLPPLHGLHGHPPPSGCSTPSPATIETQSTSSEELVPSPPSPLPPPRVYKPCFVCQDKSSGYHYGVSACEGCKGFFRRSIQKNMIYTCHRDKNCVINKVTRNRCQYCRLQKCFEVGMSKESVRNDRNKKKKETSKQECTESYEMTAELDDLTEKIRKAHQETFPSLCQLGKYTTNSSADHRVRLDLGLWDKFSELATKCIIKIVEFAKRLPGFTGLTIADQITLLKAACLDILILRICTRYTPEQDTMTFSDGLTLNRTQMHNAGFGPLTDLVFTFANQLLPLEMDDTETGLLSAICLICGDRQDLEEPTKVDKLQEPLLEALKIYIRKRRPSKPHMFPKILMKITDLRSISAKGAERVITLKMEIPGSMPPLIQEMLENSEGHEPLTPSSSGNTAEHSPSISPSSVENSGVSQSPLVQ
Kind of test: Binding affinity towards Retinoic acid receptor beta.

Test [5] has as its target T4, Retinoic acid receptor gamma (Homo sapiens, UniProt P13631).
T4 sequence (P13631 whole entry): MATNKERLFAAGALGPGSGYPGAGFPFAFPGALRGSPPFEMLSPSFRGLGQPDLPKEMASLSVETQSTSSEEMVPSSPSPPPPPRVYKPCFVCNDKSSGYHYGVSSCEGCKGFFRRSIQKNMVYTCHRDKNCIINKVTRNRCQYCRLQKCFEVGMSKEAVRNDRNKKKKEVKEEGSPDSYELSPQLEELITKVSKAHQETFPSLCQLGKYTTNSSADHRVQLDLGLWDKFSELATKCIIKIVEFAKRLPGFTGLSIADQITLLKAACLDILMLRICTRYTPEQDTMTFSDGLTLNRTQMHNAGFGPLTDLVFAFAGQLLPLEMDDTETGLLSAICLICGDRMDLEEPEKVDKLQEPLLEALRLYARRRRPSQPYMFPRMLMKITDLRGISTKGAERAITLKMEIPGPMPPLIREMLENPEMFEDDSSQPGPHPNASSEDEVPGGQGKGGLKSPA
Kind of test: Binding affinity towards Retinoic acid receptor gamma.

Test [6] has as its system F9. As to the kind of experiment: Compound was tested for its ability to induce differentiation of F9 cells as estimated by plasminogen activator secretion (PA). To be noted: Mus musculus. Type of test: functional, cell-based.

`CC(C)(C)c1cc(-c2ccc3cc(C(=O)O)ccc3c2)ccc1O`: the Ki in test [1] and in test [4] was greater than 3000 nM throughout. Further, the AC50 entry in test [2] was “Not Active”. Moreover, the result in test [3] was inactive.
As for `CC(C)(C)c1cc(C2=Cc3ccc(C(=O)O)cc3OC2)cc(C(C)(C)C)c1O`, the inhibitory constant (Ki) in test [5] was 531 nM; in test [4], greater than 3000 nM. Moreover, the AC50 in test [6] was 305 nM. The outcome in test [3] was inactive.
With `COc1ccc(C2=Cc3ccc(C(=O)O)cc3OC2)cc1C12C[C@H]3C[C@@H](C1)C[C@@H](C2)C3`, the Ki in test [5] worked out at 174 nM; in test [1], 764 nM; in test [4] it was 71 nM. In addition, the outcome in test [3] was inactive.
Consider `COc1ccc(-c2ccc3cc(C(=O)O)ccc3c2)cc1C12CC3CC(CC(C3)C1)C2`, for which the result in test [3] was inactive.
For the molecule `CC1(C)CCC(C)(C)c2cc(C3=Cc4ccc(C(=O)O)cc4OC3)ccc21`, the Ki in test [5] came to 19 nM; in test [1], 487 nM; in test [4] it was 36 nM. Also, in test [6], the AC50 is 58 nM. The outcome in test [3] was inactive.
In the same order, the values of `O=C(O)c1ccc2c(c1)OCC(c1ccc(O)c(C34C[C@H]5C[C@@H](C3)C[C@@H](C4)C5)c1)=C2` are 148 nM, 821 nM, greater than 3000 nM, 107 nM and “inactive”.
The corresponding values for `CC1(C)CCC(C)(C)c2cc(C3COc4cc(C(=O)O)ccc4C3)ccc21` (centres undefined) are 1040 nM, 5790 nM, 90 nM, 300 nM and “inactive”.
With `CC(C)(C)c1cc(C2=Cc3ccc(C(=O)O)cc3OC2)ccc1O`, the Ki in test [5], in test [1] and in test [4] was greater than 3000 nM in each case. The concentration at half-maximal activity (AC50) result in test [2] was “Not Active”. Also, in test [3], the result was inactive.
In the case of `CC1(C)CCC(C)(C)c2cc(-c3ccc4cc(C(=O)O)ccc4c3)ccc21`, in test [3], the outcome was inactive.

The values are drawn from ChEMBL document CHEMBL1150002, “Synthesis and biological activities of new heterocyclic aromatic retinoids” (Bioorg Med Chem Lett, 1997).
